Measurements as given in patent EP4631938A1, “NITROGEN-CONTAINING HETEROCYCLE WITH SEROTONIN RECEPTOR-BINDING ACTIVITY AND CARBOCYCLIC DERIVATIVE” (Shionogi & Co., Ltd, priority 2022, dated 2024).

Tests used:
[1] = target: T1, human recombinant 5-HT2C receptor (Homo sapiens, UniProt P28335); experiment: Test Example 2: 5-HT2C receptor binding inhibition test ([3H]-Mesulergine; non-specific ligand Serotonin HCl); settings: human serotonin 5-HT2C receptor binding activity
T1 construct: expressed in transfected cells; host or cells: Jump-In HEK cells (membrane preparation)
T1 sequence (P28335 33-458): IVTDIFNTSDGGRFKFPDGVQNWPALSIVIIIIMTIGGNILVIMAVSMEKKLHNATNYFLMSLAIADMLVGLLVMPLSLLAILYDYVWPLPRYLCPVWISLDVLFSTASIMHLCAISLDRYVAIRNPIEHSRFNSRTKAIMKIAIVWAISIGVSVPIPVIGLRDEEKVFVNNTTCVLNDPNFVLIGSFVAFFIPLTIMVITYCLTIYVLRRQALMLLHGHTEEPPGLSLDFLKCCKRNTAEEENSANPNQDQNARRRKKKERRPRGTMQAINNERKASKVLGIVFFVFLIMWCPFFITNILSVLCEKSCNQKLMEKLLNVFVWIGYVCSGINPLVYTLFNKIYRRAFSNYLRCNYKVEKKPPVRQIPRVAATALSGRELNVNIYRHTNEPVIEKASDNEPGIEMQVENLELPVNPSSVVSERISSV
Description: The Kd value is calculated when the lot of the cell membrane is changed. 1 mmol/L non-specific binding calculating compound dissolved in DMSO or DMSO is previously dispensed to the microplate by 0.5 µL, and the cell membrane is diluted with an Assay buffer. The radioactive ligand solution is diluted step by step, and counts are checked with a liquid scintillator. The Assay buffer containing diluted cell membranes is dispensed by 50 µL/well into the microplate. The radioactive ligand solution is then dispensed by 50 µL/well into the microplate and the plate is sealed. The microplate is allowed to stand at 37°C for 2 hours. During this time, 50 mmol/L Tris-HCl (pH 7.4) is dispensed by 50 µL/well into the GF/B UniFilter plate and allowed to stand at 4°C for 1 hour or longer. Thereafter, filtration is performed with a Cell Harvester (PerkinElmer). The radioactive ligand solution is dispensed by 10 µL/well into empty wells of the GF/B UniFilter plate. After drying the GF/B UniFilter plate at room temperature, MicroScinti20 is dispensed by 50 µL/well into the GF/B UniFilter plate, and the plate is sealed. GF/B UniFilter plate is allowed to stand at room temperature overnight. The radioactivity of [^3H]-Mesulergine bound to the 5-HT2C receptor is measured using Microbeta2 (PerkinElmer) at a measurement time of 1 min/well. The Saturation curve is drawn from the measured value, and the Kd value is calculated from the slope of the Scatchard Plot.
A compound solution dissolved in DMSO is dispensed to a microplate by 0.5 µL, and a cell membrane and a hot ligand are each diluted with an Assay buffer. The Assay buffer containing diluted cell membrane is then dispensed by 50 µL/well into the microplate. The radioactive ligand solution is then dispensed by 50 µL/well into the microplate and the plate is sealed. The microplate is then allowed to stand at 37°C for 2 hours. During this time, 50 mmol/L Tris-HCl (pH 7.4) is dispensed by 50 µL/well into the GF/B UniFilter plate and allowed to stand at 4°C for 1 hour or longer. Thereafter, filtration is performed with a Cell Harvester (PerkinElmer). After drying the GF/B UniFilter plate at room temperature, MicroScinti20 is dispensed by 50 µL/well into the GF/B UniFilter plate, and the plate is sealed. GF/B UniFilter plate is allowed to stand at room temperature overnight. The radioactivity of [^3H]-Mesulergine bound to the 5-HT2C receptor is measured using Microbeta2 (PerkinElmer) at a measurement time of 1 min/well. Non-specific binding is calculated from the radioactivity of [^3H]-Mesulergine in the presence of 500 µmol/L Serotonin HCl of unlabeled ligand, and total binding is calculated from the radioactivity of [^3H]-Mesulergine in the absence of the compound of the present invention (Vehicle). Finally, the Ki value is calculated from the dose-response curve.
(§1) (The binding activity of the compound according to the present invention is calculated from the following binding inhibition rate (%).) Inhibition rate (%) = [1−(c−a)/(b−a)] × 100 [formula] • a; average cpm of non-specific binding • b; average cpm of total binding • c; cpm in the presence of the test compound
(§2) The compounds of the present invention were tested essentially as described above.

[2] = target: T2, human recombinant 5-HT2A receptor (Homo sapiens, UniProt P28223); experiment: Test Example 1-2: 5-HT2A receptor binding inhibition test ([3H]-Ketanserin; non-specific ligand Ketanserin); settings: [3H]-Ketanserin; non-specific binding with 500 µmol/L Ketanserin; room temperature (25°C), 1.5 hours; read-out: h 5-HT2A Ki
T2 construct: expressed in transfected cells; host or cells: Jump-In HEK cells (membrane preparation)
T2 sequence (P28223 whole entry): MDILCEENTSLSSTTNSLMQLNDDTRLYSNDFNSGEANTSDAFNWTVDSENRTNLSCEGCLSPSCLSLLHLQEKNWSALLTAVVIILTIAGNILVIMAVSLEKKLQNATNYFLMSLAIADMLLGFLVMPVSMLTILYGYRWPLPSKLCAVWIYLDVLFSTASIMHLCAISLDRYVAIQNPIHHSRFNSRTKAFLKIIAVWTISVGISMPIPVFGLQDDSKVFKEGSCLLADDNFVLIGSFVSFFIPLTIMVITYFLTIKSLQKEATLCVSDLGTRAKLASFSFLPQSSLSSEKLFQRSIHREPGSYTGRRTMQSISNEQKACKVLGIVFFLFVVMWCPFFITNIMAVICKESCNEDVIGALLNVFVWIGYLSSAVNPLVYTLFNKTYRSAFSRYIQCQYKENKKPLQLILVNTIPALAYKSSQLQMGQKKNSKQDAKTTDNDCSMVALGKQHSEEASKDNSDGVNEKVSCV
Description: The Kd value is calculated when the lot of the cell membrane is changed. 1 mmol/L non-specific binding calculating compound dissolved in DMSO or DMSO is previously dispensed to the microplate by 0.5 µL, and the cell membrane is diluted with an Assay buffer. The radioactive ligand solution is diluted step by step, and counts are checked with a liquid scintillator. The Assay buffer containing diluted cell membranes is dispensed by 50 µL/well into the microplate. The radioactive ligand solution is then dispensed by 50 µL/well into the microplate and the plate is sealed. The microplate is allowed to stand for 1.5 hours at room temperature (25°C). During this time, 50 mmol/L Tris-HCl (pH 7.4) is dispensed by 50 µL/well into the UniFilter plate and allowed to stand at 4°C for 1 hour or longer. Thereafter, filtration is performed with a Cell Harvester (PerkinElmer). The radioactive ligand solution is dispensed by 10 µL/well into empty wells of the UniFilter plate. After drying the UniFilter plate at room temperature, MicroScinti20 is dispensed by 50 µL/well into the UniFilter plate, and the plate is sealed. UniFilter plate is allowed to stand at room temperature overnight. The radioactivity of [^3H]-Ketanserin bound to the 5-HT2A receptor is measured using Microbeta2 (PerkinElmer) at a measurement time of 1 min/well. The Saturation curve is drawn from the measured value, and the Kd value is calculated from the slope of the Scatchard Plot.
A compound solution dissolved in DMSO is dispensed to a microplate by 0.5 µL, and a cell membrane and a hot ligand are each diluted with an Assay buffer. The Assay buffer containing diluted cell membrane is then dispensed by 50 µL/well into the microplate. The radioactive ligand solution is then dispensed by 50 µL/well into the microplate and the plate is sealed. Thereafter, the microplate is allowed to stand at room temperature (25°C) for 1.5 hours. During this time, 50 mmol/L Tris-HCl (pH 7.4) is dispensed by 50 µL/well into the UniFilter plate and allowed to stand at 4°C for 1 hour or longer. Thereafter, filtration is performed with a Cell Harvester (PerkinElmer). After drying the UniFilter plate at room temperature, MicroScinti20 is dispensed by 50 µL/well into the UniFilter plate, and the plate is sealed. UniFilter plate is allowed to stand at room temperature overnight. The radioactivity of [^3H]-Ketanserin bound to the 5-HT2A receptor is measured using Microbeta2 (PerkinElmer) at a measurement time of 1 min/well. Non-specific binding is calculated from the radioactivity of [^3H]-Ketanserin in the presence of 500 µmol/L Ketanserin of unlabeled ligand, and total binding is calculated from the radioactivity of [^3H]-Ketanserin in the absence of the compound of the present invention (Vehicle). Finally, the Ki value is calculated from the dose-response curve.
as §1, §2

Compound	Ki [1]	Ki [2]
Cn1ncc(Br)c1-c1cc(Nc2ccc(OC3CC3)cn2)ncc1OCCO [Compound I-185]	2.76 nM	0.42 nM
COCc1nc(C)c(-c2cc(Nc3ncc(OC(F)(F)F)cc3C)ncc2OCCO)c(C)n1 [Compound I-186]	1.73 nM	1.75 nM
Cn1ncc(C#N)c1-c1cc(Nc2ncc(OC(F)(F)F)cc2Cl)ncc1OCCO [Compound I-187]	2.9 nM	0.183 nM
Cn1ncc(C#N)c1-c1cc(Nc2ccc(-c3ccc(F)cc3)cn2)ncc1OCCO [Compound I-188]	1.87 nM	0.181 nM
Cn1ncc(C#N)c1-c1cc(Nc2ccc(-c3ccc(Cl)cc3)cn2)ncc1OCCO [Compound I-189]	0.663 nM	0.217 nM
Cn1ncc(C#N)c1-c1nc(Nc2ccc(-c3ccc(F)cc3)cn2)c(F)cc1OCCO [Compound I-190]	9.08 nM	0.493 nM
Cn1ncc(C#N)c1-c1nc(Nc2ccc(-c3ccc(Cl)cc3)cn2)c(F)cc1OCCO [Compound I-191]	5.29 nM	0.473 nM
COCc1nc(C)c(-c2cc(Nc3ccc(C4CC(F)(F)C4)cn3)ncc2OCCO)c(C)n1 [Compound I-192]	9.15 nM	2.31 nM
COCc1nc(C)c(-c2nc(Nc3ccc(C4CCC4)cn3)c(F)cc2OCCO)c(C)n1 [Compound I-193]	3.76 nM	3.43 nM
COCc1nc(C)c(-c2cc(Nc3ncc(C4CC(F)(F)C4)cc3Cl)ncc2OCCO)c(C)n1 [Compound I-195]	2.1 nM	6.75 nM
COCc1nc(C)c(-c2cc(Nc3ncc(OC(F)(F)F)cc3OC)ncc2OCCO)c(C)n1 [Compound I-196]	5.17 nM	4.46 nM
Cc1nc(C)c(-c2cc(Nc3ncc(C(F)(F)F)cc3F)c(F)cc2OC[C@H](C)O)c(C)n1 [Compound I-197]	65.6 nM	2.83 nM
Cc1ncnc(C)c1-c1cc(Nc2ncc(C(F)(F)F)cc2Cl)ncc1OCCO [Compound I-202]	9.12 nM	0.828 nM
Cc1nc(C2COC2)nc(C)c1-c1cc(Nc2ncc(C(F)(F)F)cc2Cl)ncc1OCCO [Compound I-207]	6.02 nM	2.23 nM
Cc1nc(C2CCC2)nc(C)c1-c1cc(Nc2ncc(C(F)(F)F)cc2Cl)ncc1OCCO [Compound I-208]	1.67 nM	1.02 nM
Cc1nc(N2CCCC2)nc(C)c1-c1cc(Nc2ncc(C(F)(F)F)cc2Cl)ncc1OCCO [Compound I-209]	5.63 nM	1.71 nM
Cc1nc(OC2CC2)nc(C)c1-c1cc(Nc2ncc(C(F)(F)F)cc2Cl)ncc1OCCO [Compound I-212]	3.89 nM	1.22 nM
Cc1nc(N2CCCC2=O)nc(C)c1-c1cc(Nc2ncc(C(F)(F)F)cc2Cl)ncc1OCCO [Compound I-215]	9.55 nM	4.48 nM
COCC(F)(F)COc1nc(C)c(-c2cc(Nc3ncc(C(F)(F)F)cc3Cl)ncc2OCCO)c(C)n1 [Compound I-218]	3.36 nM	1.22 nM
Cc1nc(OCC2COC2)nc(C)c1-c1cc(Nc2ncc(C(F)(F)F)cc2Cl)ncc1OCCO [Compound I-219]	6.28 nM	1.25 nM
Cc1nc(OC2COC2)nc(C)c1-c1cc(Nc2ncc(C(F)(F)F)cc2Cl)ncc1OCCO [Compound I-220]	5.91 nM	1.39 nM

Second part, the compound after the results:

Ki [1]	Ki [2]	Compound
5.98 nM	6.09 nM	COCc1nc(C)c(-c2cc(Nc3ncc(C(F)(F)F)cc3F)ncc2OCCO)c(C)n1 [Compound I-199]
2.54 nM	2.26 nM	COCc1nc(C)c(-c2cc(Nc3ncc(C(F)(F)F)cc3Cl)ncc2OCCO)c(C)n1 [Compound I-201]
1.82 nM	1.97 nM	Cc1nc(COC(F)F)nc(C)c1-c1cc(Nc2ncc(C(F)(F)F)cc2Cl)ncc1OCCO [Compound I-203]
2.7 nM	2.35 nM	Cc1nc(COC(C)C)nc(C)c1-c1cc(Nc2ncc(C(F)(F)F)cc2Cl)ncc1OCCO [Compound I-204]
0.752 nM	2.94 nM	COCCOCc1nc(C)c(-c2cc(Nc3ncc(C(F)(F)F)cc3Cl)ncc2OCCO)c(C)n1 [Compound I-205]
1.78 nM	1.3 nM	Cc1nc(C2CC2)nc(C)c1-c1cc(Nc2ncc(C(F)(F)F)cc2Cl)ncc1OCCO [Compound I-206]
3.67 nM	0.804 nM	COc1nc(C)c(-c2cc(Nc3ncc(C(F)(F)F)cc3Cl)ncc2OCCO)c(C)n1 [Compound I-210]
1.89 nM	0.706 nM	Cc1nc(OCC(F)F)nc(C)c1-c1cc(Nc2ncc(C(F)(F)F)cc2Cl)ncc1OCCO [Compound I-211]
4.07 nM	1.26 nM	COCCOc1nc(C)c(-c2cc(Nc3ncc(C(F)(F)F)cc3Cl)ncc2OCCO)c(C)n1 [Compound I-213]
2.66 nM	1.74 nM	COCCc1nc(C)c(-c2cc(Nc3ncc(C(F)(F)F)cc3Cl)ncc2OCCO)c(C)n1 [Compound I-217]
2.23 nM	0.996 nM	CCc1nc(C)c(-c2cc(Nc3ncc(C(F)(F)F)cc3Cl)ncc2OCCO)c(C)n1 [Compound I-221]
1.91 nM	1.35 nM	CCCc1nc(C)c(-c2cc(Nc3ncc(C(F)(F)F)cc3Cl)ncc2OCCO)c(C)n1 [Compound I-222]
9.21 nM	0.877 nM	Cc1nc(C(F)F)nc(C)c1-c1cc(Nc2ncc(C(F)(F)F)cc2Cl)ncc1OCCO [Compound I-223]
